In patent publication US7320977B2, “Substituted 2-phenyl-3(2h)-pyridazinones” (Bayer Healthcare AG, priority 2002, dated 2008):

Assays:
lysyl oxidase = target: T1, lysyl oxidase (Bos taurus, UniProt P33072); experiment: Test for lysyl oxidase-inhibitory effect (homovanillic acid/horseradish peroxidase fluorescence); type: biochemical; conditions: enzyme from bovine aortas, 15 minutes preincubation, pH 8.2; read-out: IC50 (inhibition of lysyl oxidase)
T1 construct: The enzyme was isolated from bovine aortas; from tissue; host or cells: bovine aorta
T1 sequence (P33072 170-418): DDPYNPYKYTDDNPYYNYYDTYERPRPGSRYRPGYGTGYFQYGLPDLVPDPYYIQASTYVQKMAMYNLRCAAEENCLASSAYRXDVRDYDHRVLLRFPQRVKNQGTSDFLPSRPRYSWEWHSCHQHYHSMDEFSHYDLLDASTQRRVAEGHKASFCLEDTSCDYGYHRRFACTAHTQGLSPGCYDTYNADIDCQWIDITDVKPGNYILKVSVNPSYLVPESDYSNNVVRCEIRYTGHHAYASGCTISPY
Protocol: 1. Test for Lysyl Oxidase-inhibitory Effect:
The enzyme was isolated from bovine aortas in a modification of a method of Kagan et al. [Biochem. J. 177, 203-214 (1979)] by extraction with phosphate buffer containing urea, followed by precipitation and chromatography on DEAE-Sephadex.
The test solution (total volume 200 μl) is composed of 1.5 mM homovanillinic acid, 5 mM 1,5-diaminopentane, 1 unit of horseradish peroxidase and 1.5 M urea in 50 mM sodium borate buffer of pH 8.2. The enzyme was preincubated with the compound to be tested for 15 minutes; the reaction was started by adding diaminopentane and homovanillin/horseradish peroxidase. The fluorescence of the homovanillin dimer which formed was measured with excitation at 315 nm and emission at 425 nm. This test arrangement is a modification of the method of Trackman et al. [Anal. Biochem. 113, 336-341 (1981)].
The IC50 as a measure of the inhibition of lysyl oxidase is found by testing various concentrations of substance and using the concentration-effect plots.

[1] = system: serum-induced hepatic fibrosis in rats; experiment: Model of serum-induced hepatic fibrosis, liver collagen content (4-hydroxyproline); type: in vivo, rat; conditions: serum-treated female Sprague-Dawley rats, 3 mg/kg p.o. o.d.; vehicle 2.070, intact 0.577; P <0.01
Protocol: c) Model of Serum-induced Hepatic Fibrosis: A septal fibrosis can be induced in rats also by repeated injection of heterologous serum. For this purpose, 0.5 ml of sterile-filtered porcine serum is administered i.p. to each animal twice a week [Bhunchet and Wake, Hepatology 16, 1452-73 (1992)]. The experiments were carried out with female Sprague-Dawley rats (200-220 g). After 6-8 weeks, the septal fibrosis is histologically manifest and can also be detected through an increase in the liver hydroxyproline content. b) Collagen Content: The total collagen content was estimated by means of the tissue 4-hydroxyproline concentration. The method of Prockop and Udenfried [D. J. Prockop and S. Udenfried, A specific method for the analysis of hydroxyproline in tissues and urine, Anal. Biochem. 1, 228-239 (1960)] in modified form was used: liver samples with a wet weight of 60-90 mg were dried and then hydrolyzed in 6 N hydrochloric acid at 100° C. for 17 hours. The hydrolyzate was dried by evaporation and reconstituted in 5 ml of deionized water. […] After incubation at 35° C. for 3 hours, the absorption was measured at 573 nm. […]

[2] = system: hepatic fibrosis resulting from chronic administration of carbon tetrachloride in rats; experiment: Model of chronic carbon tetrachloride intoxication, liver collagen content (4-hydroxyproline); type: in vivo, rat; conditions: CCl4-treated female Sprague-Dawley rats, 30 mg/kg p.o. o.d., 6 weeks; vehicle 1.921, intact 0.504; P =0.059 vs. vehicle
Excerpt: a) Model of Chronic Carbon Tetrachloride Intoxication:
Chronic carbon tetrachloride (CCl4) treatment is a standard method for generating hepatic fibrosis of nonviral origin and subsequent cirrhosis. It is generally accepted as a model of hepatic fibrosis and cirrhosis in humans [E. McLean, A. McLean, P. Sutton, Instant Fibrosis: An improved method for producing cirrhosis of the liver in rats by simultaneous administration of carbon tetrachloride and phenobarbitone, Br. J. Exp. Pathol. 50, 502-506 (1969)].
Female Sprague-Dawley rats (200-220 g) were employed. In order to achieve maximum microsomal metabolization of the CCl4, the animals received isoniazid in the drinking water (1 g/l) for one week before starting the administration of carbon tetrachloride. CCl4 was administered orally each fifth day in a dose of 0.2 ml/100 g of bodyweight in a 1:1 mixture with mineral oil. […] Necropsy was performed 6 weeks after starting the treatment.
The total collagen content was estimated by means of the tissue 4-hydroxyproline concentration. […] After incubation at 35° C. for 3 hours, the absorption was measured at 573 nm. […]

[3] = system: hepatic fibrosis following bile duct ligature in rats; experiment: Model of bile duct ligature, histological morphometry (picrosirius red); type: in vivo, rat; conditions: 15 mg/kg p.o. b.i.d.
Protocol: b) Model of Bile Duct Ligature:
The experiments were carried out with female Sprague-Dawley rats (200-220 g). In order to generate chronic fibrosis, the bile duct (common hepatic duct) was doubly ligated in a surgical procedure. Ethibloc® occlusion emulsion (Ethicon, Norderstedt, Germany), a mixture of prolamine and ethanol, was instilled retrogradely into the biliary system [J. Kountouras, B. Billing, P. Scheuer, Prolonged bile obstruction: A new experimental model for cirrhosis in the rat, Br. J. Exp. Pathol. 65, 305-311 (1984); G. Boigk, L. Stroedter, H. Herbst, J. Waldschmidt, E. O. Riecken, D. Schuppan, Silymarin retards collagen accumulation in early and advanced biliary fibrosis secondary to complete bile duct obliteration in rats, Hepatology 26, 643-649 (1997)]. […] The animals were sacrificed and investigated three weeks after the surgical procedure.
a) Histological Assessments/Morphometry:
Standardized transverse cylinders of liver tissue (approx. 10×2 mm) were cut out of the right anterior lobe of each rat liver. Frozen sections were stained with 0.1% picrosirius red solution to detect scar collagen associated with hepatic fibrosis. The contrast was increased by counterstaining with fast green. The extent of hepatic fibrosis was found as a percentage of the part stainable with picrosirius red in each section. […]

SMILES	IC50 (lysyl oxidase)	melting point	further results
CCOc1c(N2CCOCC2)cnn(C)c1=O [4-ethoxy-2-methyl-5-morpholino-3(2H)-pyridazinone, reference compound]	> 4000 nM	–	–
CCN1CCN(c2cnn(-c3ccc(C)cc3)c(=O)c2Oc2ccc(-c3ccc(O)cc3)cc2)CC1 [Ex. 5, 5-(4-Ethyl-1-piperazinyl)-4-[(4′-hydroxy-1,1′-biphenyl-4-yl)oxy]-2-(4-methylphenyl)-3(2H)-pyridazinone]	17 nM	–	–
O=c1c(Oc2ccc(-c3ccccc3)cc2)c(N2CCNCC2)cnn1-c1ccc(Cl)cc1 [Ex. 12, 4-(1,1′-Biphenyl-4-yloxy)-2-(4-chlorophenyl)-5-(1-piperazinyl)-3(2H)-pyridazinone]	3 nM	–	–
O=c1c(Oc2ccc(-c3ccc(F)cc3)cc2)c(N2CCC(CO)CC2)cnn1-c1ccc(Cl)cc1 [Ex. 25, 2-(4-Chlorophenyl)-4-[(4′-fluoro-1,1′-biphenyl-4-yl)oxy]-5-[4-(hydroxymethyl)-1-piperidinyl]-3(2H)-pyridazinone]	5 nM	–	–
O=c1c(Oc2ccc(-c3ccc(O)cc3)cc2)c(-n2ccnc2)cnn1-c1ccc(Cl)cc1 [Ex. 81]	7 nM	–	–
CC(=O)NCc1cc(-c2ccc(Oc3c(N4CCNCC4)cnn(-c4ccc(Cl)cc4)c3=O)cc2)ccc1F [Ex. 176]	10 nM	–	–
CCOC(=O)c1ccc(-n2ncc(-n3ccnc3)c(Oc3ccc(-c4ccccc4)cc3)c2=O)cc1 [compound 72]	–	151 °C	–
O=c1c(Oc2ccc(-c3ccccc3)cc2)c(-n2ccnc2)cnn1-c1ccc(F)cc1 [compound 74]	–	119 °C	–
Cc1ccc(-n2ncc(-n3ccnc3)c(Oc3ccc(-c4ccc(C#N)cc4)cc3)c2=O)cc1 [compound 76]	–	220 °C	–
O=c1c(Oc2ccc(-n3cccc3)cc2)c(-n2ccnc2)cnn1-c1ccc(Cl)cc1 [compound 78]	–	188 °C	–
N#Cc1ccc(-c2ccc(Oc3c(-n4ccnc4)cnn(-c4ccc(Cl)cc4)c3=O)cc2)cc1 [compound 80]	–	276 °C	–
CS(=O)(=O)Nc1ccc(-c2ccc(Oc3c(-n4ccnc4)cnn(-c4ccc(Cl)cc4)c3=O)cc2)cc1 [compound 83]	–	180 °C	–
N#CCCN [β-Aminopropionitrile (BAPN), reference compound]	10000 nM	–	–

Further lines, with some results ahead:

IC50 (lysyl oxidase)	melting point	SMILES	further results
7 nM	–	CS(=O)(=O)N1CCN(c2cnn(-c3ccc(Cl)cc3)c(=O)c2Oc2ccc(-c3ccc(F)c(CN)c3)cc2)CC1 [Ex. 8, 4-{[3′-(Aminomethyl)-4′-fluoro-1,1′-biphenyl-4-yl]oxy}-2-(4-chlorophenyl)-5-[4-(methylsulfonyl)-1-piperazinyl]-3(2H)-pyridazinone]	–
9 nM	162 °C	CN1CCN(c2cnn(-c3ccc(Cl)cc3)c(=O)c2Oc2ccc(-c3ccccc3)cc2)CC1.Cl [Ex. 34]	4-Hydroxyproline content: average in mg/g dry weight [1]: 1.293 mg/g dry weight
11 nM	–	O=c1c(Oc2ccc(-c3ccccc3)cc2)c(-n2ccnc2)cnn1-c1ccc(Cl)cc1 [Ex. 82]	4-Hydroxyproline content: average in mg/g dry weight [2]: 1.260 mg/g dry weight; Proportionate area stainable with picrosirius red: average in % ([3]; bile duct ligated female Sprague-Dawley rats, three weeks, vehicle 7.4, sham 0.21, P <0.05 vs. vehicle): 4.98%; inhibition in fibrosis ([3]; bile duct ligated rats, worked out from Table 2): approx. 34%
–	186 °C	O=c1c(Oc2ccc(-c3ccc(F)cc3)cc2)c(-n2ccnc2)cnn1-c1ccc([N+](=O)[O-])cn1 [compound 71]	–
–	148 °C	O=c1c(Oc2ccc(-c3ccccc3)cc2)c(-n2ccnc2)cnn1-c1cccc(F)c1 [compound 73]	–
–	177 °C	Cc1ccc(-n2ncc(-n3ccnc3)c(Oc3ccc(-c4ccccc4)cc3)c2=O)cc1 [compound 77]	–
